From patent US20250313563A1, “GLYCOGEN SYNTHASE KINASE 3 INHIBITORS AND USES THEREOF” (The Broad Institute, Inc., priority 2022, published 2025) come the findings set out here.

Where two headings read alike, the source gives them in different places.

The target in experiment [1] is GSK3α (GST-full length GSK3α) (Homo sapiens (Human), UniProt P49840). In words: GSK3α TR-FRET kinase assay. It is filed as biochemical. The gist of the method: (§1)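 Compound preincubated 30 min, then 1 nM GST-full-length GSK3α or GSK3b run 100 min at ambient temperature with 200 nM biotinylated, S645-prephosphorylated glycogen synthase 631-650 peptide in Tris pH 7.5, MgCl2, DTT, BSA, 1% DMSO. ATP 4 μM (α) or 2 μM (β), or 1 mM. EDTA-quenched; Tb-anti-pSer641/streptavidin-d2 TR-FRET 665/615 ratio gave IC50.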
Chain of GSK3α (GST-full length GSK3α) (P49840 whole entry): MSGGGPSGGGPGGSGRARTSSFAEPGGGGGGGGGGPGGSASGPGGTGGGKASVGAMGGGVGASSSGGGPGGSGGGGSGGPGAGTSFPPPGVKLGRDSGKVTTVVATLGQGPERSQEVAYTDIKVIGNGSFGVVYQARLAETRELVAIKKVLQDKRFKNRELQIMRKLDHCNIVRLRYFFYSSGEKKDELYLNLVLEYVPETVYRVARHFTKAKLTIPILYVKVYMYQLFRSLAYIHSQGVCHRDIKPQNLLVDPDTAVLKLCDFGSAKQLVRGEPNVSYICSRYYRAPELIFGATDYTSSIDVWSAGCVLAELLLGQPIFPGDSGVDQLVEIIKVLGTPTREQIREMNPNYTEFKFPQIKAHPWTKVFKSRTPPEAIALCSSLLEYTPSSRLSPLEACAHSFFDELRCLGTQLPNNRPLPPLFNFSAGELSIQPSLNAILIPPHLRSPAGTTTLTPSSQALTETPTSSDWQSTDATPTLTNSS

For experiment [2], the target named is GSK3b (GST-full length GSK3b) (Homo sapiens (Human), UniProt P49841). In words: GSK3b TR-FRET kinase assay. It is filed as biochemical. The gist of the method: as §1
Chain of GSK3b (GST-full length GSK3b) (P49841 whole entry): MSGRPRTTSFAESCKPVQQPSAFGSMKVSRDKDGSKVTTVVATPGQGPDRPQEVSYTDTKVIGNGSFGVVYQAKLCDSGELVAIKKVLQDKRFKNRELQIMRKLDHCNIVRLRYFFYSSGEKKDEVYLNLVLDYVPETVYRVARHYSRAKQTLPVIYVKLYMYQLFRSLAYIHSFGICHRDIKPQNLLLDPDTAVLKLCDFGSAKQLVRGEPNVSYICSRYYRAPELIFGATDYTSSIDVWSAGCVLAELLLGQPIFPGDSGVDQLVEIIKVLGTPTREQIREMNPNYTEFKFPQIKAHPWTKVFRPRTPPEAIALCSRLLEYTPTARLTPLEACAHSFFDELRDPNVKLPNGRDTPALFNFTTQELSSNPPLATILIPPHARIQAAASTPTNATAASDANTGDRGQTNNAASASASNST
[3] abbreviates: 1 nM GSK3α, 4 μM ATP, 30 minute preincubation, geometric mean, read-out: GSK3-A TR-FRET BIOCHEMICAL (TR-FRET), GMean, IC50.
The mark [4] stands for this setting: 1 nM GSK3b, 2 μM ATP, 30 minute preincubation, geometric mean, read-out: GSK3-B TR-FRET BIOCHEMICAL (TR-FRET), GMean, IC50.
Setting [5] is: 1 nM GSK3α, 4 μM ATP, 30 minute preincubation, Table 16, read-out: GSK3-A TR-FRET BIOCHEMICAL (TR-FRET).
Setting [6] is: 1 nM GSK3b, 2 μM ATP, 30 minute preincubation, Table 16, read-out: GSK3-B TR-FRET BIOCHEMICAL (TR-FRET).
Setting [7] is: 1 nM GSK3α, 4 μM ATP, 30 minute preincubation, read-out: GSK3-A TR-FRET BIOCHEMICAL (TR-FRET), IC50.
Setting [8] is: 1 nM GSK3b, 2 μM ATP, 30 minute preincubation, read-out: GSK3-B TR-FRET BIOCHEMICAL (TR-FRET), IC50.
Where [9] appears, read: 1 nM GSK3α, 4 μM ATP, 30 minute preincubation, Table 16, read-out: GSK3-A TR-FRET BIOCHEMICAL (TR-FRET), IC50.
Setting [10] is: 1 nM GSK3b, 2 μM ATP, 30 minute preincubation, Table 16, read-out: GSK3-B TR-FRET BIOCHEMICAL (TR-FRET), IC50.
Where [11] appears, read: read-out: GSK3-A (TR-FRET 1 mM ATP), GMean, IC50, 1 mM ATP, geometric mean.
Where [12] appears, read: read-out: GSK3-B (TR-FRET 1 mM ATP), GMean, IC50, 1 mM ATP, geometric mean.

`CCC1(c2cccc(C(F)(F)F)c2)C2=C(Nc3n[nH]cc31)C(F)C(C)(C)CC2=O` (single isomer, unassigned) [Compound 837683, 4-ethyl-8-fluoro-7,7-dimethyl-4-(3-(trifluoromethyl)phenyl)-2,4,6,7,8,9-hexahydro-5H-pyrazolo[3,4-b]quinolin-5-one]: the IC50 was at most 0.1 µM in experiment [1] (setting [3]); 0.1 to 1 µM in experiment [1] (GSK3-A (TR-FRET 1 mM ATP), GMean, IC50, 1 mM ATP, geometric mean); 0.1 to 1 µM in experiment [2] (setting [4]); over 5 µM in experiment [2] (GSK3-B (TR-FRET 1 mM ATP), GMean, IC50, 1 mM ATP, geometric mean).

For the compound `CCC1(c2ccccc2)C2=C(CC3(CCC3)CC2=O)Nc2n[nH]cc21` (stereo not drawn) [Compound 811555], the IC50 in experiment [1] (setting [3]) and in experiment [2] (setting [4]) was 0.1 to 1 µM throughout.

As to `CCC1(c2cccc(-c3ccnc(C)c3)c2)C2=C(Nc3n[nH]cc31)C(F)C(C)(C)CC2=O` (stereo not drawn) [Compound 946102], the values for the IC50 in experiment [1] (setting [5]) and in experiment [2] (setting [6]) were 1 to 5 µM and over 5 µM, respectively.

With `CC1(C)CC(=O)C2=C(C1)Nc1n[nH]cc1[C@@]21COC2(CN(C(=O)c3ccccc3)C2)C1` [Compound 943955], the IC50 in experiment [1] (setting [7]) and in experiment [2] (setting [8]) was at most 0.1 µM throughout.

As for `CCC1(c2cccc(-c3c(C)nn(C)c3C)c2)C2=C(CC(C)(C)NC2=O)Nc2n[nH]c(C(F)(F)F)c21` (stereo not drawn) [Compound 947568], the IC50 in experiment [1] (setting [3]) and in experiment [2] (setting [4]) was at most 0.1 µM each time.

Take `O=C1C[C@@]2(CCOC2)CC2=C1C1(CCOCC1)c1c[nH]nc1N2` [Compound 901475]: the IC50 in experiment [1] (setting [5]) and in experiment [2] (setting [6]) was 0.1 to 1 µM each time.

For `CCC1(c2cccc(N3CCNCC3)c2)C2=C(CC(C)(C)CC2=O)Nc2n[nH]cc21` (stereo not drawn) [Compound 806604], the IC50 was over 1.67 µM in experiment [1] (setting [3]) and over 5 µM in experiment [2] (setting [4]).

For `CC[C@]1(c2cccc(N(C)c3cncnc3)c2)C2=C(CC(C)(C)NC2=O)Nc2n[nH]cc21` [Compound 915401], the IC50 was in the range of 0.1 to 1 µM in experiment [1] (setting [9]) and 1 to 5 µM in experiment [2] (setting [10]).

With `CC1(C)CC(=O)C2=C(C1)Nc1n[nH]cc1[C@@]21CCOC2(CCOCC2)C1` [Compound 924306], the IC50 in experiment [1] (setting [7]) and in experiment [2] (setting [8]) was 0.1 to 1 µM in each case.

With `C[C@@H]1CC[C@@]2(C1)C1=C(CC(C)(C)CC1=O)Nc1n[nH]cc12` [Compound 883841], the IC50 in experiment [1] (setting [5]) and in experiment [2] (setting [6]) was 0.1 to 1 µM in each case.

As for `CC1(C)CC(=O)C2=C(C1)Nc1n[nH]cc1C21COC2(CN(C(=O)CC3CC(F)(F)C3)C2)C1` (stereo not drawn) [Compound 947278], the IC50 in experiment [1] (setting [7]) and in experiment [2] (setting [8]) was at most 0.1 µM each time.

Take `CCC1(c2cccc(-c3ccnc(C)c3)c2)C2=C(CC3(CCCOC3)NC2=O)Nc2n[nH]cc21` (stereo not drawn) [Compound 948152]: the IC50 in experiment [1] (setting [3]) was at most 0.1 µM; in experiment [2] (setting [4]), 0.1 to 1 µM.

As for `CCc1cc(-c2cccc([C@@]3(CC)C4=C(CC(C)(C)NC4=O)Nc4n[nH]cc43)c2)n(C)n1` [Compound 952561], the IC50 in experiment [1] (setting [9]) and in experiment [2] (setting [10]) was 0.1 to 1 µM each time.

Regarding `CCC1(c2cccc(-c3cnn(C)c3C)c2)C2=C(CC(C)(C)CC2=O)Nc2n[nH]c(C)c21` (stereo not drawn) [Compound 913045], the IC50 in experiment [1] (setting [11]) was at most 0.1 µM; in experiment [2] (setting [12]), 0.1 to 1 µM.

With `CC[C@@]1(c2ccccc2)C2=C(CC3(CC3)CC2=O)Nc2n[nH]cc21` [Compound 790615], the IC50 in experiment [1] (setting [3]) was at most 0.1 µM; in experiment [2] (setting [4]) it was 0.1 to 1 µM.

Take `CCC1(c2cccc(-c3cnc4n3CCCC4)c2)C2=C(CC(C)(C)CC2=O)Nc2n[nH]cc21` (stereo not drawn) [Compound 943535]: the IC50 in experiment [1] (setting [5]) and in experiment [2] (setting [6]) was at most 0.1 µM in each case.

On to `CC[C@]1(c2cccc(C(F)(F)F)c2)C2=C(Nc3n[nH]cc31)[C@H](C)NC2=O` [Compound 945381], for which the IC50 in experiment [1] (setting [7]) and in experiment [2] (setting [8]) was over 5 µM throughout.

As to `C[C@@H]1C[C@@]2(CCN1S(C)(=O)=O)C1=C(CC(C)(C)CC1=O)Nc1n[nH]cc12` [Compound 918316], the IC50 is at most 0.1 µM in experiment [1] (setting [5]) and 0.1 to 1 µM in experiment [2] (setting [6]).

For the compound `CC1(C)CC(=O)C2=C(C1)Nc1n[nH]cc1C21COC2(CN(C(=O)CC3CCC3)C2)C1` (stereo not drawn) [Compound 947299], the IC50 in experiment [1] (setting [7]) and in experiment [2] (setting [8]) was at most 0.1 µM each time.

Take `CC1(C)CC(=O)C2=C(C1)Nc1n[nH]cc1[C@@]21CCCOCC1` [Compound 874536]: the IC50 in experiment [1] (setting [9]) lay within 0.1 to 1 µM; in experiment [2] (setting [10]), 1 to 5 µM.

For the compound `CC1(C)CC(=O)C2=C(C1)Nc1n[nH]cc1C21CN(S(=O)(=O)c2ccccn2)C1` [Compound 913262], the IC50 in experiment [1] (setting [5]) and in experiment [2] (setting [6]) was at most 0.1 µM in each case.

With `CC1(C)CC(=O)C2=C(C1)Nc1n[nH]cc1C2(C)CCc1ccccc1` (stereo not drawn) [Compound 819562], the IC50 in experiment [1] (setting [9]) was 1 to 5 µM; in experiment [2] (setting [10]), over 5 µM.

Regarding `CCC1(c2cccc(S(=O)(=O)C(C)C)c2)C2=C(CC(C)(C)CC2=O)Nc2n[nH]cc21` (stereo not drawn) [Compound 912169], the IC50 in experiment [1] (setting [9]) and in experiment [2] (setting [10]) was at most 0.1 µM each time.

As to `CC1(C)CC(=O)C2=C(C1)Nc1n[nH]cc1C21COC2(CN(C(=O)C3CCCCCC3)C2)C1` (stereo not drawn) [Compound 947308], the IC50 is at most 0.1 µM in experiment [1] (setting [7]) and 0.1 to 1 µM in experiment [2] (setting [8]).

Consider `CC1(C)CC(=O)C2=C(C1)Nc1n[nH]cc1C21COC2(CN(C(=O)CC3CCCCC3)C2)C1` (stereo not drawn) [Compound 947305], for which the IC50 in experiment [1] (setting [7]) and in experiment [2] (setting [8]) was at most 0.1 µM in each case.

Take `CC[C@]1(c2ccccc2)C2=C(C[C@]3(CCN(C)C3=O)CC2=O)Nc2n[nH]cc21` [Compound 949754]: the IC50 in experiment [1] (setting [5]) and in experiment [2] (setting [6]) was over 5 µM in each case.

Regarding `CCC1(c2cccc(C(F)(F)F)c2)C2=C(CNC2=O)Nc2n[nH]cc21` (stereo not drawn) [Compound 913156], the IC50 in experiment [1] (setting [5]) is 0.1 to 1 µM; in experiment [2] (setting [6]), over 5 µM.

For `CCC1(c2cccc(-c3ccnn3C)c2)C2=C(CC3(CCC3)NC2=O)Nc2n[nH]cc21` (stereo not drawn) [Compound 948522], the values for the IC50 in experiment [1] (setting [3]) and in experiment [2] (setting [4]) were 0.1 to 1 µM and over 5 µM, respectively.

As to `CC(C)(C)Cc1[nH]nc2c1C1(CCc3cccc(F)c31)C1=C(CC(C)(C)CC1=O)N2` (stereo not drawn) [Compound 801351], the results for the IC50 in experiment [1] (setting [3]) and in experiment [2] (setting [4]) were over 1.67 µM and 0.1 to 1 µM, respectively.

For the compound `CN(C)C(=O)c1cccc(S(=O)(=O)N2CCC3(CC2)C2=C(CC(C)(C)CC2=O)Nc2n[nH]cc23)c1` [Compound 947247], the IC50 in experiment [1] (setting [5]) and in experiment [2] (setting [6]) was at most 0.1 µM each time.

For `CCC1(c2cccc(Br)c2)C2=C(CC(C)(C)CC2=O)Nc2n[nH]cc21` (stereo not drawn) [Compound 789312], the IC50 in experiment [1] (setting [3]) is at most 0.1 µM; in experiment [2] (setting [4]), 0.1 to 1 µM.

As for `CCC1(c2ccn(C)n2)C2=C(CC(C)(C)CC2=O)Nc2n[nH]cc21` (stereo not drawn) [Compound 790619], the IC50 is 1 to 5 µM in experiment [1] (setting [3]) and over 5 µM in experiment [2] (setting [4]).

As for `CC[C@]1(c2cccc(-c3cc(C(F)(F)F)nn3C)c2)C2=C(CC(C)(C)NC2=O)Nc2n[nH]cc21` [Compound 952018], the IC50 in experiment [1] (setting [9]) was 0.1 to 1 µM; in experiment [2] (setting [10]), 1 to 5 µM.

Turning to `CC1CCC12C1=C(CC(C)(C)CC1=O)Nc1n[nH]cc12` (stereo not drawn) [Compound 949640], the figures for the IC50 in experiment [1] (setting [5]) and in experiment [2] (setting [6]) were 0.1 to 1 µM and 1 to 5 µM, respectively.

With `CCC1(c2cccc(-c3cnn(C)c3C)c2)C2=C(CC(C)(C)NC2=O)Nc2n[nH]c(C(F)(F)F)c21` (stereo not drawn) [Compound 947403], the IC50 is at most 0.1 µM in experiment [1] (setting [3]), at most 0.1 µM in experiment [1] (setting [11]), at most 0.1 µM in experiment [2] (setting [4]) and 0.1 to 1 µM in experiment [2] (setting [12]).

On to `CCC1(c2cccc(Cl)c2)C2=C(CC(C)(C)CC2=O)Nc2n[nH]c(Br)c21` (stereo not drawn) [Compound 801314], for which the IC50 in experiment [1] (setting [11]) was at most 0.1 µM; in experiment [2] (setting [12]), 0.1 to 1 µM.

Take `CC1(C)CC(=O)C2=C(C1)Nc1n[nH]cc1C21CCN(S(=O)(=O)c2cnn(C(C)(C)C)c2)CC1` [Compound 945677]: the figures for the IC50 in experiment [1] (setting [5]) and in experiment [2] (setting [6]) were at most 0.1 µM and 0.1 to 1 µM, respectively.
